According to patent US7731985B2, “4-aminopyrimidines and their use for the antimicrobial treatment of surfaces” (Ciba Specialty Chemicals Corporation, priority 2002, dated 2010):

Legend:
Test in all cases: MIC in microtitre plates (Example 10)
Format in all cases: cell-based
Parameters in all cases: unit not given here
Conditions in all cases: microtitre plate, 48 hours at 37° C., ≦20% growth
[1] = system: Pseudomonas aeruginosa CIP A-22 (=PA)
Protocol: (§1) Determination of the Minimum Inhibitory Concentration (MIC Value) in Microtitre Plates Casein/soymeal peptone broth for preparation of pre-cultures of test bacteria and yeast Bacteria: • Pseudomonas aeruginosa CIP A-22 (=PA) • Escherichia coli NCTC 8196 (=EC) • Staphylococcus aureus ATCC 9144 (=SA) • Candida albicans ATCC 10231 (=CA) The test substances are pre-dissolved in dimethyl sulfoxide (DMSO) and tested in a dilution series of 1:2. Bacteria and yeast are cultured overnight in CASO broth. All the test organism suspensions are adjusted to an organism count of 1-5×10^6 CFU/ml using […] sodium chloride solution. The test substances are pre-pipetted into microtitre plates in amounts of 8 μl per well. The pre-adjusted organism suspensions are diluted 1:100 in CASO broth and are added in amounts of 192 μl per well to the test substances. The test batches are incubated for 48 hours at 37° C. The incubation, the growth is determined on the basis of the turbidity of the test batches (optical density) at 620 nm in a microplate reader. The minimum inhibitory concentration (MIC value) is the concentration of substance at which (compared to the growth of the control) an appreciable inhibition of growth (≦20% growth) of the test organisms is observed. Three microtitre plates are used for each test organism and substance concentration. All the substances are tested in duplicate.

[2] = system: Staphylococcus aureus ATCC 9144 (=SA)
Protocol: as §1

[3] = system: Candida albicans ATCC 10231 (=CA)
Protocol: as §1

[4] = system: Escherichia coli NCTC 8196 (=EC)
Protocol: as §1

SMILES	MIC PA [1]	MIC SA [2]	MIC CA [3]	MIC EC [4]
CCCCCCCCCCCCCCNc1cc(C)nc(-c2cccc(F)c2)n1 [compound 75]	>120	7.5	7.5	15
CCCCCCCCCCCCCCNc1cc(C)nc(-c2ccccc2)n1 [compound 76]	>120	15	30	60
CCCCCCCCCCCCCCNc1cc(C)nc(-c2ccncc2)n1 [compound 77]	>120	7.5	15	60
CCCCCCCCCCCCCCNc1cc(C)nc(C)n1 [compound 78]	>120	<3.75	<3.75	7.5
CCCCCCCCCCCCCCNc1cc(C)nc(-c2ccc(C)cc2)n1 [compound 79]	>120	<3.75	<3.75	<3.75
CCCCCCCCCCCCCCNc1cc(C)nc(C2CC2)n1 [compound 80]	>120	<3.75	7.5	7.5
CCCCCCCCCCCCCCNc1cc(C)nc(C(C)C)n1 [compound 81]	>120	<3.75	<3.75	<3.75
CCCCCCCCCCCCCCNc1cc(C)nc(-c2csc(C)n2)n1 [compound 82]	>120	<3.75	7.5	15
CCCCCCCCCCCCCCNc1cc(C)nc(-c2ccc(C)c(F)c2)n1 [compound 83]	>120	<3.75	<3.75	7.5
CCCCCCCCCCCCNc1cc(C)nc(-c2ccc(-c3ccccc3)cc2)n1 [compound 84]	>120	15	7.5	15
CCCCCCCCCCCCNc1cc(C)nc(-c2ccc(C(C)(C)C)cc2)n1 [compound 85]	<120	15	7.5	7.5
CCCCCCCCCCCCNc1cc(C)nc(-c2cccs2)n1 [compound 86]	<120	15	7.5	15
CCCCCCCCCCCCNc1cc(C)nc(-c2ccccc2)n1 [compound 87]	<120	15	7.5	15
CCCCCCCCCCCCNc1cc(C)nc(-c2ccncc2)n1 [compound 88]	<120	15	7.5	15
CCCCCCCCCCCCNc1cc(C)nc(C)n1 [compound 89]	>120	<3.75	<3.75	<3.75
CCCCCCCCCCCCNc1cc(C)nc(-c2cccc(N)c2)n1 [compound 90]	>120	7.5	<3.75	15
CCCCCCCCCCCCNc1cc(C)nc(-c2ccc(C)cc2)n1 [compound 91]	>120	30	15	30
CCCCCCCCCCCCNc1cc(C)nc(C2CC2)n1 [compound 92]	>120	<3.75	7.5	15
CCCCCCCCCCCCNc1cc(C)nc(C(C)C)n1 [compound 93]	>120	<3.75	7.5	15
CCCCCCCCCCCCNc1cc(C)nc(-c2csc(C)n2)n1 [compound 94]	>120	<3.75	7.5	15
CCCCCCCCCCCCNc1cc(C)nc(-c2ccc(C)c(F)c2)n1 [compound 95]	>120	15	15	30
CCCCCCCCCCNc1cc(C)nc(-c2ccc(-c3ccccc3)cc2)n1 [compound 96]	>120	15	15	30
CCCCCCCCCCNc1cc(C)nc(-c2ccc(-c3ccccc3)cc2)n1 [compound 97]	>120	7.5	15	15
CCCCCCCCCCNc1cc(C)nc(-c2cccs2)n1 [compound 98]	>120	15	15	15
CCCCCCCCCCNc1cc(C)nc(-c2ccccc2)n1 [compound 99]	>120	15	30	15
CCCCCCCCCCNc1cc(C)nc(-c2ccncc2)n1 [compound 100]	>120	15	15	15
CCCCCCCCCCNc1cc(C)nc(C)n1 [compound 101]	>120	7.5	7.5	7.5
CCCCCCCCCCNc1cc(C)nc(-c2cccc(N)c2)n1 [compound 102]	>120	7.5	15	30
CCCCCCCCCCNc1cc(C)nc(-c2ccc(C)cc2)n1 [compound 103]	>120	15	30	60
CCCCCCCCCCNc1cc(C)nc(C2CC2)n1 [compound 104]	>120	<3.75	7.5	7.5
